The values below come from the Kinase Knowledgebase extract (Sharma et al. 2016).

Each structure is given as a SMILES string.

The target of this assay is MAPK14 (human) (UniProt Q16539). Nature of the assay: Inhibition of MAPK14 Kinase Assay.
MAPK14 (human), sequence (Q16539 whole entry, looked up): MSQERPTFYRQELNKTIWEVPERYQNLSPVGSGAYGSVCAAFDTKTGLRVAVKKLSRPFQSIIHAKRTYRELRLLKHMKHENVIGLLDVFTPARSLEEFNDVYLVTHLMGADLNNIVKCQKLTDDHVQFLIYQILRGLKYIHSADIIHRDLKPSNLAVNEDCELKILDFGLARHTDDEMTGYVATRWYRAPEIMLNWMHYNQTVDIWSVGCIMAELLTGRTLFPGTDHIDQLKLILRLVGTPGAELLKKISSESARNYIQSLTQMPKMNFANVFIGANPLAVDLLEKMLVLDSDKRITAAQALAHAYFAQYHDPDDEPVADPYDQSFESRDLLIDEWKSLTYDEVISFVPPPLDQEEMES

The IC50 is the concentration needed to halve the response being measured. For the compound `CSc1nc(-c2ccc(F)cc2)c(-c2ccncc2)n1NC(=O)c1ccco1`, the IC50 was 308 nM. As for `CSc1nc(-c2ccc(F)cc2)c(-c2ccncc2)n1NC(=O)Cc1ccccc1Cl`, the figure is 58 nM; as for `O=C(Cc1ccc(F)cc1)Nc1onc(-c2ccc(F)cc2)c1-c1ccncc1`, 113 nM; as for `CC(C(=O)Nc1onc(-c2ccc(F)cc2)c1-c1ccncc1)c1ccccc1` (stereo not given), 107 nM. Turning to `CSc1nc(-c2ccc(F)cc2)c(-c2ccncc2)n1NC(C)=O`, the IC50 came to 840 nM. `CSc1nc(-c2ccc(F)cc2)c(-c2ccncc2)n1NC(=O)Cc1ccc(F)cc1` registered an IC50 of 244 nM.

For `CSc1nc(-c2ccc(F)cc2)c(-c2ccncc2)n1NC(=O)c1ccccc1`, the IC50 was 314 nM.

Compound `CSc1nc(-c2ccc(F)cc2)c(-c2ccncc2)n1NC(=O)c1ccc(C)c(F)c1` had an IC50 of 242 nM. Take `Cn1nc(-c2ccc(F)cc2)c(-c2ccncc2)c1NC(=O)Cc1ccccc1Cl`: the IC50 amounted to 71 nM.

In turn, `Cn1nc(-c2ccc(F)cc2)c(-c2ccncc2)c1NC(=O)Cc1ccc(F)cc1` yielded an IC50 of 29 nM.

With `CSc1nc(-c2ccc(F)cc2)c(-c2ccncc2)n1NC(=O)COc1ccccc1`, the IC50 was 1080 nM. The compound `CSc1nc(-c2ccc(F)cc2)c(-c2ccncc2)n1NC(=O)c1cc2ccccc2o1` registered an IC50 of 873 nM. Compound `CSc1nc(-c2ccc(F)cc2)c(-c2ccncc2)n1NC(=O)C(C)c1ccccc1` (stereo not given) showed a 50% inhibitory concentration (IC50) of 95 nM. Turning to `CSc1nc(-c2ccc(F)cc2)c(-c2ccncc2)n1N`, the IC50 stood at 1880 nM. The figure for `CSc1nc(-c2ccc(F)cc2)c(-c2ccncc2)n1NC(=O)Nc1ccc(F)cc1` is 145 nM.
